Experimental data published in ChEMBL document CHEMBL1671652, “Efficacy of piperacillin combined with the Penem beta-lactamase inhibitor BLI-489 in murine models of systemic infection” (2009).
Values after ≈ are worked out from the molar mass of the structure shown.

Assays:
Escherichia coli [1] = assay: Antimicrobial activity against OXA-1 beta-lactamase producing Escherichia coli GAR 5946 infected in CD-1 mouse treated 30 and 150 mins postinfection in presence of beta-lactamase inhibitor Tazobactam; format: functional
Klebsiella pneumoniae [2] = assay: Antimicrobial activity against SHV-1and SHV-5 beta-lactamase producing Klebsiella pneumoniae GAR 7978 infected in CD-1 mouse treated 30 and 150 mins postinfection in presence of beta-lactamase inhibitor Tazobactam; format: functional
Klebsiella pneumoniae [3] = assay: Antimicrobial activity against SHV-1and SHV-5 beta-lactamase producing Klebsiella pneumoniae GAR 7978 infected in CD-1 mouse treated 30 and 150 mins postinfection; format: functional
Escherichia coli [4] = assay: Antimicrobial activity against TEM-10 beta-lactamase producing Escherichia coli GC 2022 by broth microdilution method in presence of beta-lactamase inhibitor Tazobactam; format: functional
Salmonella typhimurium = assay: Antimicrobial activity against CTX-M-5 beta-lactamase producing Salmonella enterica serovar Typhimurium GC 4195 infected in CD-1 mouse treated 30 and 150 mins postinfection in presence of beta-lactamase inhibitor Tazobactam; format: functional, Salmonella enterica subsp. enterica serovar Typhimurium
Escherichia coli [5] = assay: Antimicrobial activity against ACT-1 beta-lactamase producing Escherichia coli GC 2814 by broth microdilution method; format: functional
Escherichia coli [6] = assay: Antimicrobial activity against TEM-1 beta-lactamase producing Escherichia coli GC 6265 infected in CD-1 mouse treated 30 mins postinfection; format: functional; details: GC 6265, 0.5 h
Escherichia coli [7] = assay: Antimicrobial activity against TEM-1 beta-lactamase producing Escherichia coli GC 6265 infected in CD-1 mouse treated 30 mins postinfection in presence of 12:1 ratio of compound to beta-lactamase inhibitor BLI-489; format: functional; details: GC 6265, 0.5 h
Escherichia coli [8] = assay: Antimicrobial activity against ACT-1 beta-lactamase producing Escherichia coli GC 2814 infected in CD-1 mouse treated 30 and 150 mins postinfection in presence of 8:1 ratio of compound to beta-lactamase inhibitor BLI-489; format: functional
Klebsiella pneumoniae [9] = assay: Antimicrobial activity against SHV-11 beta-lactamase producing Klebsiella pneumoniae GAR 7693 infected in CD-1 mouse treated 30 and 150 mins postinfection; format: functional
Pseudomonas aeruginosa [10] = assay: Antimicrobial activity against AmpC beta-lactamase producing Pseudomonas aeruginosa GC 1764 by broth microdilution method in presence of 8:1 ratio of compound to beta-lactamase inhibitor BLI-489; format: functional
Escherichia coli [11] = assay: Antimicrobial activity against TEM-10 beta-lactamase producing Escherichia coli GC 2022 by broth microdilution method; format: functional
Enterobacter cloacae [12] = assay: Antimicrobial activity against AmpC beta-lactamase producing Enterobacter cloacae GC 4142 by broth microdilution method; format: functional
Klebsiella pneumoniae [13] = assay: Antimicrobial activity against SHV-11beta-lactamase producing Klebsiella pneumoniae GAR 7693 infected in CD-1 mouse treated 30 and 150 mins postinfection in presence of beta-lactamase inhibitor Tazobactam; format: functional
Escherichia coli [14] = assay: Antimicrobial activity against TEM-1 beta-lactamase producing Escherichia coli GC 6265 infected in CD-1 mouse treated 30 mins postinfection in presence of beta-lactamase inhibitor Tazobactam; format: functional; details: GC 6265, 0.5 h
Escherichia coli [15] = assay: Antimicrobial activity against ACT-1 beta-lactamase producing Escherichia coli GC 2814 infected in CD-1 mouse treated 30 and 150 mins postinfection; format: functional
Staphylococcus aureus [16] = assay: Antimicrobial activity against penicillinase producing Staphylococcus aureus GC 6468 infected in CD-1 mouse treated 30 and 150 mins postinfection; format: functional
Staphylococcus aureus [17] = assay: Antimicrobial activity against penicillinase producing Staphylococcus aureus GC 6468 infected in CD-1 mouse treated 30 and 150 mins postinfection in presence of 8:1 ratio of compound to beta-lactamase inhibitor BLI-489; format: functional
Enterobacter cloacae [18] = assay: Antimicrobial activity against AmpC beta-lactamase producing Enterobacter cloacae GC 4142 infected in CD-1 mouse treated 30 and 150 min postinfection in presence of 6:1 ratio of compound to beta-lactamase inhibitor BLI-489; format: functional
Klebsiella pneumoniae [19] = assay: Antimicrobial activity against SHV-11 beta-lactamase producing Klebsiella pneumoniae GAR 7693 by broth microdilution method in presence of beta-lactamase inhibitor Tazobactam; format: functional
Escherichia coli [20] = assay: Antimicrobial activity against TEM-1 beta-lactamase producing Escherichia coli GC 6265 by broth microdilution method in presence of 8:1 ratio of compound to beta-lactamase inhibitor BLI-489; format: functional
Enterobacter cloacae [21] = assay: Antimicrobial activity against AmpC beta-lactamase producing Enterobacter cloacae GC 4142 infected in CD-1 mouse treated 30 and 150 mins postinfection in presence of beta-lactamase inhibitor Tazobactam; format: functional
Escherichia coli [22] = assay: Antimicrobial activity against TEM-10 beta-lactamase producing Escherichia coli GC 2022 infected in CD-1 mouse treated 30 mins postinfection; format: functional; details: GC 2022, 0.5 h
Pseudomonas aeruginosa [23] = assay: Antimicrobial activity against AmpC beta-lactamase producing Pseudomonas aeruginosa GC 1764 infected in CD-1 mouse treated 30 and 150 mins postinfection in presence of 8:1 ratio of compound to beta-lactamase inhibitor BLI-489; format: functional
Klebsiella pneumoniae [24] = assay: Antimicrobial activity against SHV-1and SHV-5 beta-lactamase producing Klebsiella pneumoniae GAR 7978 infected in CD-1 mouse treated 30 and 150 mins postinfection in presence of 8:1 ratio of compound to beta-lactamase inhibitor BLI-489; format: functional
Klebsiella pneumoniae [25] = assay: Antimicrobial activity against SHV-11beta-lactamase producing Klebsiella pneumoniae GAR 7693 infected in CD-1 mouse treated 30 and 150 mins postinfection in presence of 8:1 ratio of compound to beta-lactamase inhibitor BLI-489; format: functional
Escherichia coli [26] = assay: Antimicrobial activity against TEM-10 beta-lactamase producing Escherichia coli GC 2022 infected in CD-1 mouse treated 30 mins postinfection in presence of beta-lactamase inhibitor Tazobactam; format: functional; details: GC 2022, 0.5 h
Enterobacter cloacae [27] = assay: Antimicrobial activity against AmpC beta-lactamase producing Enterobacter cloacae GC 4142 by broth microdilution method in presence of 8:1 ratio of compound to beta-lactamase inhibitor BLI-489; format: functional
Staphylococcus aureus [28] = assay: Antimicrobial activity against penicillinase producing Staphylococcus aureus GC 6468 infected in CD-1 mouse treated 30 and 150 mins postinfection in presence of beta-lactamase inhibitor Tazobactam; format: functional
Enterobacter cloacae [29] = assay: Antimicrobial activity against AmpC beta-lactamase producing Enterobacter cloacae GC 4142 infected in CD-1 mouse treated 30 and 150 min postinfection in presence of 12:1 ratio of compound to beta-lactamase inhibitor BLI-489; format: functional
Klebsiella pneumoniae [30] = assay: Antimicrobial activity against SHV-11 beta-lactamase producing Klebsiella pneumoniae GAR 7693 by broth microdilution method in presence of 8:1 ratio of compound to beta-lactamase inhibitor BLI-489; format: functional
Enterobacter cloacae [31] = assay: Antimicrobial activity against AmpC beta-lactamase producing Enterobacter cloacae GC 4142 infected in CD-1 mouse treated 30 and 150 min postinfection in presence of 2:1 ratio of compound to beta-lactamase inhibitor BLI-489; format: functional
Escherichia coli [32] = assay: Antimicrobial activity against OXA-1 beta-lactamase producing Escherichia coli GAR 5946 infected in CD-1 mouse treated 30 and 150 mins postinfection in presence of 8:1 ratio of compound to beta-lactamase inhibitor BLI-489; format: functional
Enterobacter cloacae [33] = assay: Antimicrobial activity against AmpC beta-lactamase producing Enterobacter cloacae GC 4142 infected in CD-1 mouse treated 30 and 150 min postinfection in presence of 8:1 ratio of compound to beta-lactamase inhibitor BLI-489; format: functional
Pseudomonas aeruginosa [34] = assay: Antimicrobial activity against AmpC beta-lactamase producing Pseudomonas aeruginosa GC 1764 infected in CD-1 mouse treated 30 and 150 mins postinfection; format: functional

CCN1CCN(C(=O)N[C@@H](C(=O)N[C@@H]2C(=O)N3[C@@H]2SC(C)(C)[C@@H]3C(=O)O)c2ccccc2)C(=O)C1=O [PIPERACILLIN]
ED50 (Escherichia coli [1]): 270 mg/kg | ED50 (Klebsiella pneumoniae [2]): 58 mg/kg | ED50 (Klebsiella pneumoniae [3]): 245 mg/kg | MIC (Escherichia coli [4]): 2 µg/mL | ED50 (Salmonella typhimurium): 152 mg/kg | MIC (Escherichia coli [5]): 2 µg/mL (≈ 3.86 µM) | ED50 (Escherichia coli [6]): 176 mg/kg | ED50 (Escherichia coli [7]): 11 mg/kg | ED50 (Escherichia coli [8]): 13 mg/kg | ED50 (Klebsiella pneumoniae [9]): 193 mg/kg | MIC (Pseudomonas aeruginosa [10]): 4 µg/mL | MIC (Escherichia coli [11]): 1 µg/mL (≈ 1.93 µM) | MIC (Enterobacter cloacae [12]): 8 µg/mL (≈ 15.5 µM) | ED50 (Klebsiella pneumoniae [13]): 24 mg/kg | ED50 (Escherichia coli [14]): 11 mg/kg | ED50 (Escherichia coli [15]): 103 mg/kg | ED50 (Staphylococcus aureus [16]): 418 mg/kg | ED50 (Staphylococcus aureus [17]): 12 mg/kg | ED50 (Enterobacter cloacae [18]): 30 mg/kg | MIC (Klebsiella pneumoniae [19]): > 64 µg/mL | MIC (Escherichia coli [20]): 4 µg/mL | ED50 (Enterobacter cloacae [21]): 71 mg/kg | ED50 (Escherichia coli [22]): 301 mg/kg | ED50 (Pseudomonas aeruginosa [23]): 103 mg/kg | ED50 (Klebsiella pneumoniae [24]): 28 mg/kg | ED50 (Klebsiella pneumoniae [25]): 23 mg/kg | ED50 (Escherichia coli [26]): 25 mg/kg | MIC (Enterobacter cloacae [27]): > 64 µg/mL | ED50 (Staphylococcus aureus [28]): 16 mg/kg | ED50 (Enterobacter cloacae [29]): 60 mg/kg | MIC (Klebsiella pneumoniae [30]): > 64 µg/mL | ED50 (Enterobacter cloacae [31]): 31 mg/kg | ED50 (Escherichia coli [32]): 86 mg/kg | ED50 (Enterobacter cloacae [33]): 32 mg/kg | ED50 (Pseudomonas aeruginosa [34]): 980 mg/kg
